Assay results as given in ChEMBL document CHEMBL5725498, “ROR modulators and their uses” (2017).

Tests used:
[1] = TH17 Cytokine Inhibition ELISA: Human CD4+ T cells were differentiated to TH17 cells as described in the presence or absence of various concentrations of compounds in a final concentration of 0.1% DMSO in TexMACS medium. Supernatants were collected and stored at −20° C. until they were to be assayed for IL-17A, IL-17F, IL-17AF, IL-21 and/or IL-22 levels as determined by Ready-Set-Go ELISA kits (eBioscience) as per manufacturer's instructions. Endpoint absorbance was read at 450 nm and 570 nm according to manufacturer's instructions (eBioscience) using a microplate reader (Perkin Elmer). The percentage of cytokine inhibition was calculated with reference to DMSO treated cells and the IC50s were determined by GraphPad Prism software and presented in the table below.
[2] = biological target: T1, Nuclear receptor ROR-gamma (Homo sapiens, UniProt P51449); assay: RORgamma LBD Binding Assay: Compound binding to the human RORγ LBD was assessed using the Human RORγ Assay System (INDIGO Biosciences Inc.) as per manufacturer's instructions. Binding to the RORγ LBD was assessed using gradient concentrations of the indicated compounds in a final concentration of 0.5% DMSO, where IC50s were generated using Graphpad Prism.
T1 sequence (P51449 whole entry): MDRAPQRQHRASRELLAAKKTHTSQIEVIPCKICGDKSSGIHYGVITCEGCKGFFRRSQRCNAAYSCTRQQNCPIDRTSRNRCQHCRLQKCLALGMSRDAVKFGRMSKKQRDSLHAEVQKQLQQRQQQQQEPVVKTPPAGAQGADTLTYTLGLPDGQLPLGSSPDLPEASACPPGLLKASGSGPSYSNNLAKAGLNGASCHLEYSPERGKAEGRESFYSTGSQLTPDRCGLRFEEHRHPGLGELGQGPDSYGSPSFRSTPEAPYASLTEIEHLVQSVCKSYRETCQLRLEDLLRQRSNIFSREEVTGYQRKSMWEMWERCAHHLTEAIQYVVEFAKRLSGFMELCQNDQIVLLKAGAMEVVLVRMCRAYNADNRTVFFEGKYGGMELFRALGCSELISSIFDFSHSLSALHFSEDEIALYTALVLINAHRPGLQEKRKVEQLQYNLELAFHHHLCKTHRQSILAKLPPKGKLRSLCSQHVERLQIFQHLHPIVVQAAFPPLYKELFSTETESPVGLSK

OC(c1ccc(CBr)cc1)(C(F)(F)F)C(F)(F)F
IC50 [1]: < 10 µM

CN(C)C(=O)c1ccc2c(ccc(=O)n2Cc2ccc(C(O)(C(F)(F)F)C(F)(F)F)cc2)c1
IC50 [1]: < 10 µM

CN(C)C(=O)c1ccc2c(c1)CCC(=O)N2Cc1ccc(C(O)(C(F)(F)F)C(F)(F)F)cc1
IC50 [1]: > 10 µM | IC50 [2]: < 10 µM
